The test system of experiment [1] is rhythmic bladder contraction in rat. In words: Test on rhythmic bladder contraction in rat (in vivo muscarinic antagonism). Also noted: species or system Wistar female rats.
The subject of experiment [2] is salivary secretion in rat. Briefly: Test on salivary secretion in rat (oxotremorine-induced). It counts as in vivo, Male Wistar rats.
The subject of experiment [3] is bronchospasm in guinea pig. It counts as in vivo, Hartley male guinea pig.
Experiment [4] has as its target T1, muscarinic M2 receptors (Rattus norvegicus, UniProt P10980).
T1 sequence (P10980 1-466): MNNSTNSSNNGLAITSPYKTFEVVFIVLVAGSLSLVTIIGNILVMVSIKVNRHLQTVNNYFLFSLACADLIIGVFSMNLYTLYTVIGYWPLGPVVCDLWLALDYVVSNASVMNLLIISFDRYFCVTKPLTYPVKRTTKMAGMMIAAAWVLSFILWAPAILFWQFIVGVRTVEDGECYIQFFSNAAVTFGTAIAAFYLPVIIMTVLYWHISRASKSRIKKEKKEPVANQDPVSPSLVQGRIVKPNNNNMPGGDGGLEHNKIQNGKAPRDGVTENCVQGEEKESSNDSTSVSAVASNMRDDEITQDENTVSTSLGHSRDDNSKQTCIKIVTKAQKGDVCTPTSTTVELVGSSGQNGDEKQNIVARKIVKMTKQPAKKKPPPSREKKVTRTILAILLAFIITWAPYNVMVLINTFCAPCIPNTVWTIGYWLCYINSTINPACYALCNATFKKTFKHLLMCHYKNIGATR
Briefly: biochemical. It counts as binding, Wistar male rats. To be noted: for Ki: read-out: Ki (nM) M2 binding Test.

Experiment [5] has as its target T2, Muscarinic M3 receptor (Rattus norvegicus, UniProt P08483).
T2 construct: except that submandibular gland membranes were used and [^3H]-N-methylscopolamine was used as the labeled ligand; from tissue; host or cells: rat submandibular gland membranes (Wistar male rats, Nippon SLC)
In words: Muscarinic M3 receptor binding test (submandibular gland membranes, [3H]-N-methylscopolamine). To be noted: for Ki: rat submandibular gland membranes, [3H]-N-methylscopolamine, read-out: Ki (nM) M3 binding Test. Also noted: species or system Wistar male rats.

The mark [6] stands for this setting: urethane anesthesia, cumulative i.v. administration, 30% inhibition of peak bladder contractions.
The mark [7] stands for this setting: oxotremorine 0.8 µmol/kg 15 minutes after compound, saliva of 5 minutes.
Where [8] appears, read: methacholine 5 µg/kg i.v., 3 minutes after compound i.v.

pKi: −log10 of the molar value. Read-outs that look alike come from different tables or passages of the source.

T2 sequence (P08483 whole entry): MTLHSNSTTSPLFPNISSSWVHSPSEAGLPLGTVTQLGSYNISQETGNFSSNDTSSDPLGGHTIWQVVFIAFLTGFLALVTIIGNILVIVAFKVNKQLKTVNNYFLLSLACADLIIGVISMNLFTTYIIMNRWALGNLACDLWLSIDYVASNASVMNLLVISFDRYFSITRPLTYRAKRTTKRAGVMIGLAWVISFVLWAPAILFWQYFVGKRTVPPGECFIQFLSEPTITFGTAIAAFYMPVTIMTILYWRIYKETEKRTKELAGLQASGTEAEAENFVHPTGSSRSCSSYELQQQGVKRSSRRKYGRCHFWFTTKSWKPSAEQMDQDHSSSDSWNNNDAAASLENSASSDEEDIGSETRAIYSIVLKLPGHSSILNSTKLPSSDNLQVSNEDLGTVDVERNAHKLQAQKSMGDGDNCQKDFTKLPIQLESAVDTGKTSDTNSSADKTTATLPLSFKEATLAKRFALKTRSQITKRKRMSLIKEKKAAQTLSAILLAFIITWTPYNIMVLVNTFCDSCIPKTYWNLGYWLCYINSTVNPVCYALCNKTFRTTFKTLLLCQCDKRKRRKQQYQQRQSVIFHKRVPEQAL

For `O=C(Nc1ccccc1-c1ccccc1)OC1CCN(Cc2cccc(O)c2)CC1.O=C(O)C(=O)O` [Example 15, 1-(3-Hydroxybenzyl)-4-piperidyl N-(2-biphenylyl)carbamate monooxalate], the “Rhythmic Bladder Contraction Test ED30 (mg/kg i.v.)” value in experiment [1] (setting [6]) stood at 0.058 mg/kg i.v. Further, in experiment [2] (setting [7]), the “Salivary Secretion Test ED50 (mg/kg i.v.)” value (“Salivary Secretion Test ED50” for short) was 0.36 mg/kg i.v.

On to `CN1[C@@H]2CC[C@H]1C[C@@H](OC(=O)C(CO)c1ccccc1)C2` (some centres unmarked) [Atropine, reference compound], for which, in experiment [3] (in vivo, iv), the “Bronchospasm Test ID50 (mg/kg i.v.)” value was 0.0008 mg/kg i.v. Further, the “Rhythmic Bladder Contraction Test ED30 (mg/kg i.v.)” value in experiment [1] (in vivo, iv) is 0.009 mg/kg i.v. For the same molecule, in experiment [2] (in vivo, iv), the “Salivary Secretion Test ED50” value came to 0.0084 mg/kg i.v.

Consider `Cl.O=C(Nc1ccccc1-c1ccccc1)OC1CN2CCC1CC2` (centres unmarked) [Example 1, 3-quinuclidinyl N-(2-biphenylyl)carbamate monohydrochloride], for which the pKi (commonly the Ki on a negative log10 scale, so that one unit is a factor of ten) was 7.59 in experiment [4] and 9.03 in experiment [5]. In addition, in experiment [5] (ratio of Ki M2 to Ki M3), the M2/M3 is 27.6. Moreover, the “Bronchospasm Test ID50 (mg/kg i.v.)” value in experiment [3] (setting [8]) turned out to be 0.0045 mg/kg i.v.

On to “3-quinuclidinyl N-[2-(1H-pyrrol-1-yl)phenyl]carbamate monohydrochloride [Example 2]”, for which the values for the Ki in experiment [4] and in experiment [5] were 100 nM and 4.89 nM, respectively. Moreover, the M2/M3 in experiment [5] (ratio of Ki M2 to Ki M3) was found to be 20.4. For the same molecule, the “Rhythmic Bladder Contraction Test ED30 (mg/kg i.v.)” value in experiment [1] (setting [6]) worked out at 0.018 mg/kg i.v. Also, the “Salivary Secretion Test ED50” value in experiment [2] (setting [7]) is 0.11 mg/kg i.v.

For `C[N+]12CCC(CC1)C(OC(=O)Nc1ccccc1-c1ccccc1)C2.[I-]` (centres unmarked) [Example 3, 3-[[N-(2-biphenylyl)carbamoyl]oxy]-1-methylquinuclidinium iodide], the pKi in experiment [4] is 7.84; in experiment [5] it was 9.25. In experiment [5] (ratio of Ki M2 to Ki M3), the M2/M3 was 25.7. Further, the “Bronchospasm Test ID50 (mg/kg i.v.)” value in experiment [3] (setting [8]) is on record as 0.0038 mg/kg i.v.

On to “3-Quinuclidinyl N-[2-(2-cyclohexen-1-yl)phenyl]carbamate hemioxalate [Example 61]”, for which the “Rhythmic Bladder Contraction Test ED30 (mg/kg i.v.)” value in experiment [1] (setting [6]) turned out to be 0.029 mg/kg i.v. In addition, the “Salivary Secretion Test ED50” value in experiment [2] (setting [7]) is 0.14 mg/kg i.v.

In the case of `CCN(CC)CC#CCOC(=O)C(O)(c1ccccc1)C1CCCCC1` (centres unmarked) [Oxybutynin, reference compound], the “Rhythmic Bladder Contraction Test ED30 (mg/kg i.v.)” value in experiment [1] (setting [6]) came out at 0.24 mg/kg i.v. In addition, the “Salivary Secretion Test ED50” value in experiment [2] (setting [7]) is 0.18 mg/kg i.v.

For `C[N+]1(C)CCC(OC(=O)Nc2ccccc2-c2ccccc2)CC1.[I-]` [Example 7, 4-[[N-(2-biphenylyl)carbamoyl]oxy]-1,1-dimethylpiperidinium iodide], the figures for the Ki in experiment [4] and in experiment [5] were 14.7 nM and 0.57 nM, respectively. Moreover, the M2/M3 in experiment [5] (ratio of Ki M2 to Ki M3) is 25.8. In addition, the “Bronchospasm Test ID50 (mg/kg i.v.)” value in experiment [3] (in vivo, iv) is on record as 0.0054 mg/kg i.v.

On to `Cl.O=C(Nc1ccccc1-c1ccccc1)OC12CCN(CC1)CC2` [Example 4, 4-quinuclidinyl N-(2-biphenylyl)carbamate monohydrochloride], for which the pKi in experiment [4] is 8.23. In experiment [5], this molecule showed a pKi of 9.41 and an M2/M3 of 15.2. In addition, the “Bronchospasm Test ID50 (mg/kg i.v.)” value in experiment [3] (in vivo, iv) is reported as 0.0082 mg/kg i.v. In experiment [1] (in vivo, iv), the “Rhythmic Bladder Contraction Test ED30 (mg/kg i.v.)” value is 0.014 mg/kg i.v. In experiment [2] (in vivo, iv), the “Salivary Secretion Test ED50” value is recorded as 0.10 mg/kg i.v.
